Measured values: ChEMBL document CHEMBL5108012, “Discovery of 2,5-diphenyl-1,3,4-thiadiazole derivatives as HDAC inhibitors with DNA binding affinity” (Eur J Med Chem, 2022)
Values belong to the compound of their own block, whether it stands above or below them. The source made the active and inactive calls. The calls are words filed in the database; no cut-off is given here.

Tests used:
[1] = target: Histone deacetylase (HDAC1 and HDAC2) (Homo sapiens, UniProt Q13547+Q92769); test: Inhibition of HDAC1/HDAC2 in human HeLa cell nuclear extract using Boc-Lys(Ac)-AMC as substrate and measured by fluorometric method; assay type: cell-based
[2] = target: Histone deacetylase 1 (Homo sapiens, UniProt Q13547); test: Inhibition of HDAC1 in human HeLa cell nuclear extract using Boc-Lys(Ac)-AMC or Boc-Lys(triflouroacetyl)-AMC as substrate incubated for 30 mins and measured by fluorescence assay; assay type: cell-free
Chain of Histone deacetylase 1 (Q13547 whole entry): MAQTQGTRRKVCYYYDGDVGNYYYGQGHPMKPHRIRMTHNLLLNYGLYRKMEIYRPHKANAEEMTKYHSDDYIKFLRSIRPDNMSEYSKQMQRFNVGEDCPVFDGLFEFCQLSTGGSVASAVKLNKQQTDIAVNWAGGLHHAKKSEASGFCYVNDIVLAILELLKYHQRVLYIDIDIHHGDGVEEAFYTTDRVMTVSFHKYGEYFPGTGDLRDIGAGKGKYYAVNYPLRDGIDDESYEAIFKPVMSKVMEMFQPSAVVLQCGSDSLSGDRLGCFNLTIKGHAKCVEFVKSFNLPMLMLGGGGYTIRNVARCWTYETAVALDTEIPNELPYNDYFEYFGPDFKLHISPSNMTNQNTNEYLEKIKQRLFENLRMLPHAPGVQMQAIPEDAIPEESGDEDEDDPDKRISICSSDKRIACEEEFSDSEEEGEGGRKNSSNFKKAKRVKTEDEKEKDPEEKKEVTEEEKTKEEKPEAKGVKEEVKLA

[3] = target: T1, Protein deacetylase HDAC6 (Homo sapiens, UniProt Q9UBN7); test: Inhibition of HDAC6 in human HeLa cell nuclear extract using Boc-Lys(Ac)-AMC or Boc-Lys(triflouroacetyl)-AMC as substrate incubated for 30 mins and measured by fluorescence assay; assay type: cell-free
T1 sequence (Q9UBN7 whole entry): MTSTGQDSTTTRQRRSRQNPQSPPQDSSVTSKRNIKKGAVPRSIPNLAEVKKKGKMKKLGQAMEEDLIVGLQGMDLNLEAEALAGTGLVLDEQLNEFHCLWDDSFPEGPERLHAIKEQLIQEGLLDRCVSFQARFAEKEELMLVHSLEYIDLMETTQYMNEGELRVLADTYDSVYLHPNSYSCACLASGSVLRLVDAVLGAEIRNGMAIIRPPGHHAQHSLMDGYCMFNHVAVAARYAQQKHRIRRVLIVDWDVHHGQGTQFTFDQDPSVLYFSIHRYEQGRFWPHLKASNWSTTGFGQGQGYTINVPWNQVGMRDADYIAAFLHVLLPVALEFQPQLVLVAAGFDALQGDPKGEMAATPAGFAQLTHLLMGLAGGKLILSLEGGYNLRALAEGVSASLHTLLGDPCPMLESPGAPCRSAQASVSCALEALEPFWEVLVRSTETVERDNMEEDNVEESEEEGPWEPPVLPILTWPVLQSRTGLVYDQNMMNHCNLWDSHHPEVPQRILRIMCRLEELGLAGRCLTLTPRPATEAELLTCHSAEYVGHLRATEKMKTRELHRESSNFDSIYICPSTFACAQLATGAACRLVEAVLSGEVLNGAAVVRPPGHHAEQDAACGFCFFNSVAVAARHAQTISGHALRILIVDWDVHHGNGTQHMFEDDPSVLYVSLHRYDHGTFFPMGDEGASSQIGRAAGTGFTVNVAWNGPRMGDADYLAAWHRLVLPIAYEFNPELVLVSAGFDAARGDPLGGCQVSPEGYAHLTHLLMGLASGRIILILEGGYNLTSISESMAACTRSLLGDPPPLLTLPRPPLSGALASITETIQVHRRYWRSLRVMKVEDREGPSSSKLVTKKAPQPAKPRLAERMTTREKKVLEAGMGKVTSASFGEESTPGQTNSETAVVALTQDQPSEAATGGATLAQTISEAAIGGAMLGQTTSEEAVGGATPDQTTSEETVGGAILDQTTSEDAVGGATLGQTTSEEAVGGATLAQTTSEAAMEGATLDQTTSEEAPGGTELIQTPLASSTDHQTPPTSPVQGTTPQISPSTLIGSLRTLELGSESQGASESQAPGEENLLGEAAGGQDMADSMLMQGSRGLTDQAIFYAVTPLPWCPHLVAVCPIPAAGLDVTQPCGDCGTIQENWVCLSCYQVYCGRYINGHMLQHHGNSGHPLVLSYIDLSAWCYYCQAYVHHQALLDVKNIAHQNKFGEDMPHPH

[4] = target: T2, Histone deacetylase 8 (Homo sapiens, UniProt Q9BY41); test: Inhibition of HDAC8 in human HeLa cell nuclear extract using Boc-Lys(Ac)-AMC or Boc-Lys(triflouroacetyl)-AMC as substrate incubated for 30 mins and measured by fluorescence assay; assay type: cell-free
T2 sequence (Q9BY41 whole entry): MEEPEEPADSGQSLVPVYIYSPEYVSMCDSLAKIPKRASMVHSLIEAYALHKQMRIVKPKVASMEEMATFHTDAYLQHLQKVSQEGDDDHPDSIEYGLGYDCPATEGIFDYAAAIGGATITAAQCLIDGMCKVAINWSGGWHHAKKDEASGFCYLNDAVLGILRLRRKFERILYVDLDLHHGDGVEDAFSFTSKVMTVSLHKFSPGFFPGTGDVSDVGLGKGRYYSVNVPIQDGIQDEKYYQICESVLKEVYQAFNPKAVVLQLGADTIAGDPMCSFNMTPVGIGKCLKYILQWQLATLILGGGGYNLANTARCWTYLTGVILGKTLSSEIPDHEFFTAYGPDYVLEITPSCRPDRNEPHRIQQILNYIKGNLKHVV

[5] = test system: HCT-116; test: Antiproliferative activity against human HCT-116 cells after 48 hrs by CCK-8 assay; assay type: functional, cell-based; conditions: HCT-116, 48 h
[6] = test system: HeLa; test: Antiproliferative activity against human HeLa cells after 48 hrs by CCK-8 assay; assay type: functional, cell-based
[7] = test system: HepG2; test: Antiproliferative activity against human HepG2 cells after 48 hrs by CCK-8 assay; assay type: functional, cell-based; conditions: HepG2, 48 h
[8] = test system: MC-38; test: Antiproliferative activity against mouse MC38 cells after 48 hrs by CCK-8 assay; assay type: functional, cell-based; conditions: MC-38, 48 h
[9] = test system: K562; test: Antiproliferative activity against human K562 cells after 48 hrs by CCK-8 assay; assay type: functional, cell-based; conditions: K562, 48 h
[10] = test system: HEL; test: Antiproliferative activity against human HEL cells after 48 hrs by CCK-8 assay; assay type: functional, cell-based
[11] = test system: MOLT-4; test: Antiproliferative activity against human MOLT-4 cells after 48 hrs by CCK-8 assay; assay type: functional, cell-based; conditions: MOLT-4, 48 h
[12] = test system: HCT-116; test: Induction of apoptosis in human HCT-116 cells assessed as early apoptotic cells at 1.5 uM incubated for 48 hrs by PI and annexin V-FITC staining based flow cytometry (reference value: 3.4%); assay type: functional
[13] = test system: HCT-116; test: Induction of apoptosis in human HCT-116 cells assessed as late apoptotic cells at 1.5 uM incubated for 48 hrs by PI and annexin V-FITC staining based flow cytometry (reference value: 3.4%); assay type: functional
[14] = test system: Calf thymus DNA; test: Binding affinity to calf thymus DNA at 50 uM incubated for 30 mins and measured by UV-vis absorption spectroscopy; assay type: nucleic-acid assay; conditions: Bos taurus
[15] = test system: Calf thymus DNA; test: Binding affinity to calf thymus DNA at 50 uM incubated for 30 mins and measured by fluorescence spectroscopy; assay type: nucleic-acid assay; conditions: Bos taurus

SMILES: O=C(COc1ccc(-c2nnc(-c3ccccc3Cl)s2)cc1)NO
IC50 [1]: > 1000 nM

SMILES: COc1cc(-c2nnc(-c3cccc(OCCCCCC(=O)NO)c3)s2)cc(O)c1OC
IC50 [1]: > 1000 nM

SMILES: O=C(COc1cccc(-c2nnc(-c3ccccc3Cl)s2)c1)NO
IC50 [1]: > 1000 nM

SMILES: COc1cc(-c2nnc(-c3ccc(OCCCCC(=O)NO)cc3)s2)cc(OC)c1OC
IC50 [1]: > 1000 nM

SMILES: COc1cc(-c2nnc(-c3cccc(OCCCC(=O)NO)c3)s2)cc(OC)c1OC
IC50 [1]: > 1000 nM

SMILES: O=C(CCCCCCOc1ccc(-c2nnc(-c3ccccc3Cl)s2)cc1)NO
IC50 [1]: > 1000 nM

SMILES: O=C(CCCCCOc1ccc(-c2nnc(-c3ccccc3Cl)s2)cc1)NO
IC50 [1]: > 1000 nM

SMILES: COc1cc(-c2nnc(-c3ccc(OCCCC(=O)NO)cc3)s2)cc(OC)c1OC
IC50 [1]: > 1000 nM

SMILES: COc1cc(-c2nnc(-c3ccc(OCC(=O)NO)cc3)s2)cc(OC)c1OC
IC50 [1]: > 1000 nM

SMILES: COc1cc(-c2nnc(-c3cccc(OCC(=O)NO)c3)s2)cc(OC)c1OC
IC50 [1]: > 1000 nM

SMILES: COc1cc(-c2nnc(-c3ccc(OCCCCCC(=O)NO)cc3)s2)cc(OC)c1OC
IC50 [1]: > 1000 nM

SMILES: COc1cc(-c2nnc(-c3cccc(OCCCCCCCC(=O)NO)c3)s2)cc(OC)c1OC
IC50 [1]: 395 nM

SMILES: O=C(COc1ccc(-c2nnc(-c3ccccc3)s2)cc1)NO
IC50 [1]: > 1000 nM

SMILES: COc1cc(-c2nnc(-c3ccc(OCCCCCCCC(=O)NO)cc3)s2)cc(OC)c1OC
IC50 [1]: > 1000 nM

SMILES: COc1cc(-c2nnc(-c3ccc(OCCCCCCC(=O)NO)cc3)s2)cc(OC)c1OC
IC50 [1]: 537 nM

SMILES: COc1cc(-c2nnc(-c3cccc(OCCCCCCC(=O)NO)c3)s2)cc(OC)c1OC
IC50 [1]: 366 nM

SMILES: O=C(CCCCOc1ccc(-c2nnc(-c3ccccc3Cl)s2)cc1)NO
IC50 [1]: > 1000 nM

SMILES: O=C(CCCCCCC(=O)Nc1ccccc1)NO [VORINOSTAT]
Activity [12]: 5.05%
Activity [13]: 5.05%

SMILES: O=C(CCCOc1ccc(-c2nnc(-c3ccccc3Cl)s2)cc1)NO
IC50 [1]: > 1000 nM

SMILES: CN1CCN(c2ccc3[nH]c(-c4ccc5[nH]c(-c6ccc(O)cc6)nc5c4)nc3c2)CC1
Activity [14]: Active
Activity [15]: Active

SMILES: COc1cc(-c2nnc(-c3cccc(OCCCCC(=O)NO)c3)s2)cc(OC)c1OC
IC50 [1]: > 1000 nM

Further lines, with some results ahead:

IC50 [1]: > 1000 nM
SMILES: O=C(CCCCCCCOc1ccc(-c2nnc(-c3ccccc3)s2)cc1)NO

IC50 [1]: 57 nM
IC50 [2]: 19 nM
IC50 [3]: 185 nM
IC50 [4]: 2390 nM
IC50 [5]: 2900 nM
IC50 [6]: 4900 nM
IC50 [7]: 2200 nM
IC50 [9]: 3200 nM
IC50 [11]: 710 nM
SMILES: O=C(CCCCCCOc1cccc(-c2nnc(-c3ccccc3)s2)c1)NO
IC50 [8]: 2400 nM
IC50 [10]: 2600 nM

IC50 [1]: > 1000 nM
SMILES: O=C(CCCOc1cccc(-c2nnc(-c3ccccc3)s2)c1)NO

IC50 [1]: 538 nM
SMILES: O=C(CCCCCCCOc1cccc(-c2nnc(-c3ccccc3)s2)c1)NO

IC50 [1]: > 1000 nM
SMILES: O=C(CCCCCCCOc1ccc(-c2nnc(-c3ccccc3Cl)s2)cc1)NO

IC50 [1]: > 1000 nM
SMILES: O=C(CCCCCOc1ccc(-c2nnc(-c3ccccc3)s2)cc1)NO

IC50 [1]: 118 nM
IC50 [2]: 179 nM
IC50 [3]: 32 nM
IC50 [4]: 3110 nM
IC50 [5]: 2000 nM
IC50 [6]: 1900 nM
IC50 [7]: 11000 nM
IC50 [9]: 2100 nM
IC50 [11]: 490 nM
SMILES: O=C(CCCCOc1cccc(-c2nnc(-c3ccccc3)s2)c1)NO
IC50 [8]: 7100 nM
IC50 [10]: 570 nM

IC50 [1]: 461 nM
SMILES: O=C(CCCCCCCOc1cccc(-c2nnc(-c3ccccc3Cl)s2)c1)NO

IC50 [1]: 199 nM
IC50 [2]: 82 nM
IC50 [3]: 64 nM
IC50 [4]: > 10000 nM
IC50 [5]: 20000 nM
IC50 [6]: > 50000 nM
IC50 [7]: > 50000 nM
IC50 [9]: 16000 nM
IC50 [11]: 3100 nM
SMILES: O=C(CCCCCCOc1ccc(-c2nnc(-c3ccccc3)s2)cc1)NO
IC50 [8]: 14000 nM
IC50 [10]: > 10000 nM

IC50 [1]: > 1000 nM
SMILES: O=C(COc1cccc(-c2nnc(-c3ccccc3)s2)c1)NO

IC50 [1]: 656 nM
SMILES: O=C(CCCCOc1cccc(-c2nnc(-c3ccccc3Cl)s2)c1)NO

IC50 [1]: 168 nM
IC50 [2]: 168 nM
IC50 [3]: 30 nM
IC50 [4]: 1520 nM
IC50 [5]: 10000 nM
IC50 [6]: 17000 nM
IC50 [7]: 21000 nM
IC50 [9]: 7700 nM
IC50 [11]: 2400 nM
SMILES: O=C(CCCCCCOc1cccc(-c2nnc(-c3ccccc3Cl)s2)c1)NO
IC50 [8]: 16000 nM
IC50 [10]: 8100 nM

IC50 [1]: > 1000 nM
SMILES: O=C(CCCOc1cccc(-c2nnc(-c3ccccc3Cl)s2)c1)NO

IC50 [1]: 339 nM
SMILES: O=C(CCCCCOc1cccc(-c2nnc(-c3ccccc3Cl)s2)c1)NO

IC50 [1]: 362 nM
SMILES: O=C(CCCCOc1ccc(-c2nnc(-c3ccccc3)s2)cc1)NO

IC50 [1]: > 1000 nM
SMILES: O=C(CCCOc1ccc(-c2nnc(-c3ccccc3)s2)cc1)NO
